In patent US11649228B2, “Zinc indicators for cellular imaging” (The Board of Regents of the University of Texas System, priority 2018, dated 2023):

Columns and labels:
[1] = Photochemical characterization of ZIGIRs in vitro (absorption, emission, quantum yield); type: physicochemical; conditions: for ε (extinction coefficient): in M-1·cm-1 (unit assumed); for ϕfl × ε (fluorescence brightness): in M^-1 cm^-1 (unit assumed)
Protocol: UV-Vis spectra were recorded in a 1-cm path quartz cell on a Shimadzu 2401 PC spectrometer. Fluorescence excitation and emission spectra were recorded on a Fluorolog 3 spectrometer (Jobin-Yvon Horiba, Edison, N.J.). Zinc titration was performed by adding ZIGIRs (0.5 μM final concentration) to buffered Zn^2+ solutions containing 100 mM HEPES (pH 7.4). Nitrilotriacetic acid (NTA, 10 mM) and varying concentrations of ZnSO4 (0-9 mM) were mixed to reach free Zn^2+ concentrations between 0.1 nM and 40 nM (Li et al., 2011). Zn^2+ concentrations above 40 nM were controlled by iminodiacetate (IDA, 10 mM) and varying amounts of ZnSO4 (0-9.7 mM) in 100 mM HEPES (pH 7.4; Sasaki et al., 2011). To determine Zn^2+ binding dissociation constants (Kd(Zn^2+)), the Zn^2+ titration data were fitted to the least square exponential equation (Prism 7). Fluorescence quantum yields of ZIGIRs at pH 7.5 were determined using rhodamine 6G as the reference (Φfl=0.94 in MeOH; Magde et al., 2002). An example in shown FIGS. 11A0B. To examine the pH sensitivity of ZIGIRs, the fluorescence emission spectra was recorded from pH 3-9.4 in either nominally Zn^2+-free solutions containing 5 mM iminodiacetate or in 25 μM ZnSO4 solutions. The pH was controlled with 10 mM pH buffers including chloroacetic acid (pH 3.1), acetate (pH 4.1 and 5.0), 2-morpholinoethanesulfonic acid (MES, pH 6.14), HEPES (pH 7.5) and N-cyclohexyl-2-aminoethanesulfonic acid (CHES, pH 9.4).

[2] = test system: T47D human breast cancer cells, H1299 lung carcinoma and HEK293 human embryonic kidney cells; experiment: ZIGIR-2 imaging in cells not known to contain Zn^2+ rich secretory granules; type: cell-based
Protocol: To better understand the granular labeling specificity of ZIGIR-2, a number of mammalian cells were imaged that are not known to contain Zn^2+ rich secretory granules. These included T47D human breast cancer cells, H1299 lung carcinoma and HEK293 human embryonic kidney cells. […] However, after adding Zn/pyrithione, distinct ZIGIR-2 positive spots emerged in these cells (FIG. 8B). Subsequently, LysoTracker Green (LTG), an acidotropic fluorescent tracer based on BODIPY dye, was added to label acidic granules.
MIN-6 β cells were cultured as previously described (Li et al., 2011). HEK293 cells were cultured in DMEM medium supplemented with 10% FBS and 1% Penicillin/Streptomycin. T47D cells were cultured in RPMI-1640 medium supplemented with 10% FBS, 0.5% non-essential amino acids, 1 mM sodium pyruvate, 10 μg/mL geneticin and 0.01 mg/mL insulin. H1299 cells were cultured in RPMI-1640 medium supplemented with 10% FBS. All cells were maintained at 37° C. with 5% CO2. For cell imaging, cells were seeded in 35-mm petri dishes with glass bottoms (MatTek) and cultured for ˜24 hours to reach ˜50% confluence. Prior to labeling, cells were washed with a secretion assay buffer (SAB) containing 114 mM NaCl, 4.7 mM KCl, 1.2 mM KH2PO4, 2.5 mM CaCl2, 1.16 mM MgSO4, 3 mM glucose, and 20 mM Hepes (pH 7.4). […] ZIGIR colocalization with LysoTracker Green was analyzed and quantified with JACoP plugin of ImageJ.

[3] = test system: human islet endocrine cells; experiment: Flow cytometry analysis and sorting of human islet cells with ZIGIR-2; type: cell-based; conditions: ZIGIR-2, HPi2 and TM4SF4 labeling
Text: Thus far the majority of studies on ZnT8 and Zn^2+ signaling have been carried out in mouse islet cells, and less is known about the expression of ZnT8 and Zn^2+ distribution in human islet endocrine cells. To analyze granular Zn^2+ activity in human islets by flow cytometry, the inventors dispersed human islets into single cells and sequentially labeled them with ZIGIR-2 and antibodies reactive towards human pancreatic endocrine cells and α-cells (FIG. 12A), including the HPi2 antibody (Dorrell et al., 2008) and an antibody of a tetraspanin family member protein TM4SF4 (Muraro et al., 2016), respectively. The islet endocrine cells (HPi2+, FIG. 13) contained a subset of cells showing high ZIGIR-2 signal and low TM4SF4 expression (P1 subset, FIG. 12B). Immunofluorescence analysis of the sorted cells confirmed that the P1 subset was highly enriched with human β-cells (91%), together with a small percent of δ-cells (FIG. 12C). […] They obtained similar flow cytometry results from different human donors and confirmed high enrichments of β-cell or α-cell in P1 or P2 subset (including P2a and P2b), respectively (FIG. 14). […] In addition to containing more glucagon granules, P2a cells might also express more ZnT8 protein than P2b. Future studies using more quantitative techniques such as western blot should help address the issue.

absorption maximum [1]: around 555 nm
emission maximum [1]: ~580 nm
λabd^max ([1]; Zn^2+ bound): 549 nm
λem^max ([1]; Zn^2+ bound): 580 nm
ϕfl (fluorescence quantum yield) ([1]; Zn^2+ bound): 0.26
ε (extinction coefficient) ([1]; Zn^2+ bound): 93,600
ϕfl × ε (fluorescence brightness) ([1]; Zn^2+ bound): 24,336
λabd^max ([1]; Zn^2+ free): 546 nm
λem^max ([1]; Zn^2+ free): 572 nm
ϕfl (fluorescence quantum yield) ([1]; Zn^2+ free): 0.008
ε (extinction coefficient) ([1]; Zn^2+ free): 88,400
ϕfl × ε (fluorescence brightness) ([1]; Zn^2+ free): 707
Compound: CN(C)c1ccc2c(-c3ccc(NCCN(CCc4ccccn4)Cc4ccccn4)cc3C(=O)[O-])c3ccc(=[N+](C)C)cc-3oc2c1 [ZIGIR-2]
overlap of ZIGIR-2 positive puncta with LysoTracker Green marked granules ([2]; after Zn/pyrithione): overlapped remarkably well
fluorescence signal in basal SAB buffer ([2]; same dye loading and imaging conditions as MIN6 cells): barely any ZIGIR-2 fluorescence signal was detected
α-cell purity of sorted P2a and P2b subsets [3]: > 95%
β-cells in sorted P1 subset [3]: 91%
